Data as given in the supplement of paper PMC10307832.

Key:
Test in all cases: relative viability (nuclei count vs DMSO), 5 days (fraction); higher = more cells survive
[1] = compound: O=C(/C=C/c1cccnc1)NCCCCC1CCN(C(=O)c2ccccc2)CC1 [Daporinad] + Cc1cc(Nc2cc(N3CCN(C)CC3)nc(Sc3ccc(NC(=O)C4CC4)cc3)n2)n[nH]1 [Tozasertib] (partner 0.1 µM)
How it was run: (§1)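 Cells from lung cancer lines were seeded into 1536-well plates and, one day later, dosed by pin tool. Treatments were either a single drug or a fixed dose of an anchor drug with five library-drug doses (not always all listed) in √10 steps. After 5 days, nuclei were stained in a one-step fixation (final 0.05% Triton X-100, 1% formaldehyde, 1 ug/ml Hoechst) and counted on 4× images, and relative viability is the treated-to-vehicle nuclei ratio, as the median of duplicate plates.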

[2] = compound: COc1cc(Nc2ncc(F)c(Nc3ccc4c(n3)NC(=O)C(C)(C)O4)n2)cc(OC)c1OC [R406] + C[C@@H](Oc1cc(-c2cnn(C3CCNCC3)c2)cnc1N)c1c(Cl)ccc(F)c1Cl [Crizotinib] (partner 1 µM)
How it was run: as §1

[3] = compound: O=C(/C=C/c1cccnc1)NCCCCC1CCN(C(=O)c2ccccc2)CC1 [Daporinad] + O=C(CCCCCCC(=O)Nc1ccccc1)NO [Vorinostat] (partner 1 µM)
How it was run: as §1

[4] = compound: COc1cc(Nc2ncc(F)c(Nc3ccc4c(n3)NC(=O)C(C)(C)O4)n2)cc(OC)c1OC [R406] + Nc1ncn([C@H]2C[C@H](O)[C@@H](CO)O2)c(=O)n1 [Decitabine] (partner 2 µM)
How it was run: as §1

Cell Line | relative viability ([1]; first compound 0.0005 µM) | relative viability ([1]; first compound 0.001581 µM) | relative viability ([1]; first compound 0.005 µM) | relative viability ([1]; first compound 0.01581 µM) | relative viability ([2]; first compound 0.08 µM) | relative viability ([2]; first compound 0.253 µM) | relative viability ([2]; first compound 0.8 µM) | relative viability ([2]; first compound 2.53 µM) | relative viability ([2]; first compound 8 µM) | relative viability ([3]; first compound 0.0005 µM) | relative viability ([3]; first compound 0.001581 µM) | relative viability ([3]; first compound 0.005 µM) | relative viability ([3]; first compound 0.01581 µM) | relative viability ([4]; first compound 0.08 µM) | relative viability ([4]; first compound 0.253 µM) | relative viability ([4]; first compound 0.8 µM) | relative viability ([4]; first compound 2.53 µM) | relative viability ([4]; first compound 8 µM)
NCI-H1915 | 0.476 | 0.401 | 0.485 | 0.494 | 0.898 | 0.975 | 0.959 | 0.782 | 0.874 | 0.52 | 0.605 | 0.634 | 0.462 | 0.258 | 0.298 | 0.265 | 0.293 | 0.278
NCI-H647 | 0.308 | 0.305 | 0.285 | 0.508 | 0.987 | 1.35 | 1.26 | 0.573 | 0.0968 | 0.527 | 0.483 | 0.534 | 0.49 | 0.39 | 0.462 | 0.406 | 0.486 | 0.207
NCI-H322M | 0.572 | 0.485 | 0.396 | 0.312 | 0.811 | 1.06 | 0.978 | 0.611 | 0.438 | 0.891 | 0.877 | 0.831 | 0.669 | 0.665 | 0.669 | 0.704 | 0.594 | 0.557
NCI-H650 | 0.691 | 0.853 | 0.738 | 0.835 | 0.809 | 0.848 | 0.713 | 0.59 | 0.532 | 0.465 | 0.488 | 0.511 | 0.399 | 0.316 | 0.34 | 0.34 | 0.297 | 0.354
NCI-H2170 | 0.694 | 0.742 | 0.668 | 0.849 | 1.16 | 1.25 | 1.15 | 0.815 | 0.495 | 0.769 | 0.81 | 0.827 | 0.822 | 0.437 | 0.448 | 0.487 | 0.41 | 0.505
NCI-H2085 | 0.805 | 0.846 | 0.977 | 0.831 | 0.841 | 0.974 | 0.785 | 0.887 | 0.566 | 0.737 |  | 0.92 | 0.966 | 0.592 | 0.58 | 0.492 | 0.544 | 0.451
NCI-H838 | 0.25 | 0.322 | 0.229 | 0.177 | 0.806 | 0.945 | 0.949 | 0.612 | 0.516 | 0.763 | 0.814 | 0.49 | 0.418 | 0.496 | 0.528 | 0.485 | 0.363 | 0.214
NCI-H460 | 0.43 | 0.386 | 0.6 | 0.56 | 0.829 | 1.09 | 1.16 |  | 0.441 | 0.743 | 0.719 | 0.687 | 0.643 | 0.426 | 0.596 | 0.758 | 0.0438 | 0.354
LOU-NH91 | 0.754 | 0.699 | 0.792 | 0.906 | 0.745 | 0.728 | 0.756 | 0.504 | 0.57 | 0.929 | 1.01 | 1.1 | 1.02 | 0.797 | 0.792 | 0.779 | 0.644 | 0.558
NCI-H3122 | 0.376 | 0.403 | 0.421 | 0.405 | 0.286 | 0.257 | 0.247 | 0.25 | 0.259 | 0.938 | 1.14 | 1.03 | 0.898 | 0.368 | 0.398 | 0.328 | 0.508 | 0.482
NCI-H520 | 0.446 | 0.507 | 0.25 | 0.184 | 0.735 | 1.09 | 0.875 | 0.58 | 0.269 | 0.747 | 0.284 | 0.228 | 0.165 | 0.455 | 0.684 | 0.53 | 0.302 | 0.158
NCI-H661 | 0.368 | 0.339 | 0.345 | 0.292 |  | 1.01 | 1.02 | 0.882 | 1.14 | 0.766 | 0.709 | 0.461 | 0.568 | 0.478 | 0.531 | 0.615 | 0.473 | 0.405
NCI-H727 | 0.737 | 0.608 | 0.555 | 0.62 | 0.866 | 0.852 | 0.898 | 0.714 | 0.301 | 1.11 | 1.25 | 1.45 | 1.03 | 0.919 | 1.16 | 0.854 | 0.872 | 0.847
NCI-H1734 | 0.283 | 0.262 | 0.285 | 0.263 | 0.707 | 0.814 | 0.654 | 0.542 | 0.292 | 0.837 | 0.897 | 0.729 | 0.301 | 0.521 | 0.524 | 0.551 | 0.404 | 0.399
LXF-289 | 0.23 | 0.188 | 0.176 | 0.148 | 0.739 | 0.918 | 0.833 | 0.832 | 0.259 | 0.692 | 0.937 | 0.794 | 0.96 | 0.386 | 0.372 | 0.406 | 0.405 | 0.396
